Measurements reported in US7763602B2, “Pyrrole derivatives as antimycobacterial compounds” (priority 2002, dated 2010).
≈ marks a conversion by molar mass, not a printed value. Like-named read-outs stand apart in the source and are kept apart here.

Columns and labels:
[1] = tested on: M. tuberculosis strain 103471; details: literature values; cited from earlier work
[2] = tested on: M. tuberculosis clinical isolates, sensitive; assay: microbe, parasite or virus in culture; assay type: cell-based, Mycobacterium tuberculosis; details: for MIC: Mycobacterium tuberculosis
[3] = tested on: M. tuberculosis H37Rv ATCC 27294; assay: Murine model of pulmonary tuberculosis, treated 14 days post-infection; details: Table IV; for Mean Log10 No. of CFU Lung / Mean Log10 No. of CFU Spleen: 5 day/week for 4 week, treated 14 days post-infection; for Mean Log10 no. of reduction Lung / Mean Log10 no. of reduction Spleen: difference from early controls
M. tuberculosis 27294 = assay: In vitro agar dilution assay (MIC), reference strain; assay type: cell-based, Mycobacterium tuberculosis; details: for MIC: Mycobacterium tuberculosis, 27294, Table I, read-out: MIC (μg/ml) against M. tuberculosis-27294
[4] = Acute toxicity study in mice; assay type: in vivo, Swiss albino mice; details: for LD0: single oral dose, mice
Procedure: Compound No. 3 of formula (I) was administered, as a single oral dose, in Swiss albino mice. Two dose levels of 500 and 2000 mg/kg were employed. […] Therefore LD0 was >2000 mg/kg by oral route in mice. […] Similarly in compound No. 12 of Formula I, LD0 was >500 mg/kg by oral route in mice.

[5] = tested on: M. tuberculosis H37Rv ATCC 27294; assay: In vitro growth inhibition assay, BACTEC 460 TB system; assay type: cell-based, Mycobacterium tuberculosis; parameters: key: +: If ΔGI of test vial is less than that of the control vial the culture was sensitive to the test compound; details: final concentration 6.25 μg/ml
[6] = tested on: M. tuberculosis H37Rv ATCC 27294; assay: Murine model of pulmonary tuberculosis, treated 01 day post-infection; details: for Mean Log10 No. of CFU Lung / Mean Log10 No. of CFU Spleen: 5 day/week for 4 week; for Mean Log10 No. of reduction Lung / Mean Log10 No. of reduction Spleen / Mean Log10 no. of reduction Lung / Mean Log10 no. of reduction Spleen: difference from early controls
M. fortuitum = assay: In vitro agar dilution assay (MIC), M. fortuitum; assay type: cell-based, Mycobacterium fortuitum; details: Mycolicibacterium fortuitum, read-out: MIC (μg/ml) M. fortuitum (n = 8)
[7] = mice, oral route; cited from earlier work
M. kansasii = assay: In vitro agar dilution assay (MIC), M. kansasii; assay type: cell-based; details: Mycobacterium kansasii, read-out: MIC (μg/ml) M. kansasii (n = 2)
[8] = tested on: M. avium-intracellulare complex; assay: In vitro agar dilution assay (MIC), M. avium-intracellulare complex; assay type: cell-based; details: Mycobacterium avium-intracellulare; Table II; 13 strains; read-out: MIC (μg/ml) M. avium-intracellulare complex (n = 13)
[9] = Table VI, 12.5 mg/kg, treated 01 day post-infection
[10] = Table VI, 25 mg/kg, treated 01 day post-infection
[11] = Table VI, 50 mg/kg, treated 01 day post-infection
[12] = read-out: MIC (μg/ml) M. tuberculosis Sensitive (n = 17)
[13] = read-out: MIC (μg/ml) against Clinical isolates Sensitive
[14] = Table III, 12.5 mg/kg gavage, treatment from 1 day after infection
[15] = Table III, 25 mg/kg gavage, treatment from 1 day after infection
[16] = Table III, 50 mg/kg gavage, treatment from 1 day after infection

Cc1c(CN2CCN(C)CC2)cc(-c2ccc(Cl)cc2)n1-c1ccc(Cl)cc1 [BM 212]
MIC value (μg/ml) against the M. tuberculosis strain 103471 [1]: 0.70 µg/mL (≈ 1.69 µM)

Cc1c(CN2CCN(c3cccc(C(F)(F)F)c3)CC2)cc(-c2ccccc2)n1NC(=O)c1ccncc1 [Compound No. 12, N-(3-{[4-(3-trifluoromethylphenyl)piperazinyl]methyl}-2-methyl-5-phenylpyrrolyl)-4-pyridylcarboxamide]
MIC (μg/ml) against Clinical isolates Sensitive ([2]; Table I, agar dilution): 0.25 to 0.5 µg/mL | Mean Log10 No. of CFU Lung ([3]; 12.5 mg/kg): 4.18 ± 0.38 | Mean Log10 No. of CFU Spleen ([3]; 12.5 mg/kg): 4.41 ± 0.26 | Mean Log10 no. of reduction Lung ([3]; 12.5 mg/kg): 1.41 | Mean Log10 no. of reduction Spleen ([3]; 12.5 mg/kg): 1.54 | Mean Log10 No. of CFU Lung ([3]; 25 mg/kg): 2.87 ± 0.15 | Mean Log10 No. of CFU Spleen ([3]; 25 mg/kg): 2.83 ± 0.29 | Mean Log10 no. of reduction Lung ([3]; 25 mg/kg): 2.72 | Mean Log10 no. of reduction Spleen ([3]; 25 mg/kg): 3.12 | Mean Log10 No. of CFU Lung ([3]; 50 mg/kg): 2.74 ± 0.36 | Mean Log10 No. of CFU Spleen ([3]; 50 mg/kg): 2.78 ± 0.32 | Mean Log10 no. of reduction Lung ([3]; 50 mg/kg): 2.85 | Mean Log10 no. of reduction Spleen ([3]; 50 mg/kg): 3.17 | MIC (μg/ml) against M. tuberculosis-27294 (M. tuberculosis 27294; Table I): 0.25 µg/mL (≈ 0.481 µM) | LD0 ([4]; observed for 14 days): > 500 mg/kg | Growth inhibition of M. tuberculosis 27294 [5]: + | Mean Log10 No. of CFU Lung [6, 9]: 2.34 ± 0.18 | Mean Log10 No. of CFU Spleen [6, 9]: 2.26 ± 0.21 | Mean Log10 No. of reduction Lung ([6]; Table VI, 12.5 mg/kg): 2.23 | Mean Log10 No. of reduction Spleen ([6]; Table VI, 12.5 mg/kg): 2.43 | Mean Log10 No. of CFU Lung [6, 10]: 2.1 ± 0.24 | Mean Log10 No. of CFU Spleen [6, 10]: 2.13 ± 0.28 | Mean Log10 No. of reduction Lung ([6]; Table VI, 25 mg/kg): 2.47 | Mean Log10 No. of reduction Spleen ([6]; Table VI, 25 mg/kg): 2.56 | Mean Log10 No. of CFU Lung [6, 11]: 1.89 ± 0.24 | Mean Log10 No. of CFU Spleen [6, 11]: 1.94 ± 0.23 | Mean Log10 No. of reduction Lung ([6]; Table VI, 50 mg/kg): 2.68 | Mean Log10 No. of reduction Spleen ([6]; Table VI, 50 mg/kg): 2.75

NNC(=O)c1ccncc1 [Isoniazid, reference compound]
MIC (M. fortuitum): > 16 µg/mL | MIC [2, 12]: 0.25 µg/mL (≈ 1.82 µM) | MIC [2, 13]: 0.125 to 0.25 µg/mL (≈ 0.911 to 1.82 µM) | Reported LD50 [7]: 139 mg/kg | Mean Log10 No. of CFU Lung ([3]; 12.5 mg/kg): 4.56 ± 0.24 | Mean Log10 No. of CFU Spleen ([3]; 12.5 mg/kg): 4.93 ± 0.42 | Mean Log10 no. of reduction Lung ([3]; 12.5 mg/kg): 1.03 | Mean Log10 no. of reduction Spleen ([3]; 12.5 mg/kg): 1.02 | Mean Log10 No. of CFU Lung ([3]; 25 mg/kg): 3.19 ± 0.6 | Mean Log10 No. of CFU Spleen ([3]; 25 mg/kg): 3.08 ± 0.44 | Mean Log10 no. of reduction Lung ([3]; 25 mg/kg): 2.4 | Mean Log10 no. of reduction Spleen ([3]; 25 mg/kg): 2.87 | Mean Log10 No. of CFU Lung ([3]; 50 mg/kg): 2.97 ± 0.46 | Mean Log10 No. of CFU Spleen ([3]; 50 mg/kg): 2.89 ± 0.27 | Mean Log10 no. of reduction Lung ([3]; 50 mg/kg): 2.62 | Mean Log10 no. of reduction Spleen ([3]; 50 mg/kg): 3.06 | MIC (M. kansasii): > 16 µg/mL | MIC (M. tuberculosis 27294): 0.25 µg/mL (≈ 1.82 µM) | Growth inhibition of M. tuberculosis 27294 [5]: + | Mean Log10 No. of CFU Lung [6, 14]: 2.93 | Mean Log10 No. of CFU Spleen [6, 14]: 2.91 | Mean Log10 no. of reduction Lung ([6]; Table III, 12.5 mg/kg): 1.55 | Mean Log10 no. of reduction Spleen ([6]; Table III, 12.5 mg/kg): 1.72 | Mean Log10 No. of CFU Lung [6, 15]: 2.16 | Mean Log10 No. of CFU Spleen [6, 15]: 2.21 | Mean Log10 no. of reduction Lung ([6]; Table III, 25 mg/kg): 2.36 | Mean Log10 no. of reduction Spleen ([6]; Table III, 25 mg/kg): 2.27 | Mean Log10 No. of CFU Lung [6, 16]: 1.95 | Mean Log10 No. of CFU Spleen [6, 16]: 2.12 | Mean Log10 no. of reduction Lung ([6]; Table III, 50 mg/kg): 2.53 | Mean Log10 no. of reduction Spleen ([6]; Table III, 50 mg/kg): 2.51 | Mean Log10 No. of CFU Lung [6, 9]: 2.89 ± 0.27 | Mean Log10 No. of CFU Spleen [6, 9]: 2.91 ± 0.42 | Mean Log10 No. of reduction Lung ([6]; Table VI, 12.5 mg/kg): 1.68 | Mean Log10 No. of reduction Spleen ([6]; Table VI, 12.5 mg/kg): 1.78 | Mean Log10 No. of CFU Lung [6, 10]: 2.23 ± 0.33 | Mean Log10 No. of CFU Spleen [6, 10]: 2.21 ± 0.44 | Mean Log10 No. of reduction Lung ([6]; Table VI, 25 mg/kg): 2.34 | Mean Log10 No. of reduction Spleen ([6]; Table VI, 25 mg/kg): 2.48 | Mean Log10 No. of CFU Lung [6, 11]: 2.02 ± 0.31 | Mean Log10 No. of CFU Spleen [6, 11]: 2.07 ± 0.33 | Mean Log10 No. of reduction Lung ([6]; Table VI, 50 mg/kg): 2.55 | Mean Log10 No. of reduction Spleen ([6]; Table VI, 50 mg/kg): 2.62 | MIC value (μg/ml) against the M. tuberculosis strain 103471 [1]: 0.25 µg/mL (≈ 1.82 µM)

COc1ccccc1N1CCN(Cc2cc(-c3ccc(Cl)cc3)n(-c3ccc(Cl)cc3)c2C)CC1 [Compound No. 2, 1-{[1,5-bis(4-chlorophenyl)-2-methylpyrrol-3-yl]methyl}-4-(2-methoxyphenyl) piperazine]
MIC (M. fortuitum; Table II, 8 strains): 8 to 16 µg/mL (≈ 15.8 to 31.6 µM) | MIC [2, 12]: 0.125 to 0.25 µg/mL (≈ 0.247 to 0.494 µM) | MIC [2, 13]: 0.125 to 0.25 µg/mL (≈ 0.247 to 0.494 µM) | MIC (M. kansasii; Table II, 2 strains): 8 µg/mL (≈ 15.8 µM) | MIC (M. tuberculosis 27294): 0.25 µg/mL (≈ 0.494 µM) | Growth inhibition of M. tuberculosis 27294 [5]: + | MIC [8]: 4 to 8 µg/mL (≈ 7.9 to 15.8 µM)

Cc1c(CN2CCN(c3cccc(C(F)(F)F)c3)CC2)cc(-c2ccc(Cl)cc2)n1-c1ccc(Cl)cc1 [Compound No. 3, 1-{[1,5-bis(4-chlorophenyl)-2-methylpyrrol-3-yl]methyl}-4-(3-trifluoromethylphenyl)piperazine]
MIC (M. fortuitum; Table II, 8 strains): 4 to 8 µg/mL (≈ 7.35 to 14.7 µM) | MIC [2, 12]: 0.125 to 0.25 µg/mL (≈ 0.23 to 0.459 µM) | MIC [2, 13]: 0.125 to 0.25 µg/mL (≈ 0.23 to 0.459 µM) | MIC (M. kansasii; Table II, 2 strains): 4 µg/mL (≈ 7.35 µM) | MIC (M. tuberculosis 27294): 0.125 µg/mL (≈ 0.23 µM) | Clinical symptoms or mortality ([4]; single oral dose 500 and 2000 mg/kg, Swiss albino mice, observed for 14 days): No clinical symptom or mortality was observed | Pathological changes in organs ([4]; single oral dose 500 and 2000 mg/kg, mice sacrificed on day 15): no pathological changes were seen in any organ | LD0 ([4]; observed for 14 days): > 2000 mg/kg | Growth inhibition of M. tuberculosis 27294 [5]: + | Mean Log10 No. of CFU Lung [6, 14]: 2.63 | Mean Log10 No. of CFU Spleen [6, 14]: 2.6 | Mean Log10 no. of reduction Lung ([6]; Table III, 12.5 mg/kg): 1.85 | Mean Log10 no. of reduction Spleen ([6]; Table III, 12.5 mg/kg): 2.03 | Mean Log10 No. of CFU Lung [6, 15]: 2.13 | Mean Log10 No. of CFU Spleen [6, 15]: 2.07 | Mean Log10 no. of reduction Lung ([6]; Table III, 25 mg/kg): 2.35 | Mean Log10 no. of reduction Spleen ([6]; Table III, 25 mg/kg): 2.29 | Mean Log10 No. of CFU Lung [6, 16]: 1.97 | Mean Log10 No. of CFU Spleen [6, 16]: 1.94 | Mean Log10 no. of reduction Lung ([6]; Table III, 50 mg/kg): 2.51 | Mean Log10 no. of reduction Spleen ([6]; Table III, 50 mg/kg): 2.64 | MIC [8]: 4 to 8 µg/mL (≈ 7.35 to 14.7 µM)

Cc1c(CN2CCN(c3ncccn3)CC2)cc(-c2ccc(Cl)cc2)n1-c1ccc(Cl)cc1 [compound 5, 1-{[1,5-bis(4-chlorophenyl)-2-methylpyrrol-3-yl]methyl}-4-(2-pyrimidyl) piperazine]
MIC (M. fortuitum; Table II, 8 strains): 8 to 16 µg/mL (≈ 16.7 to 33.4 µM) | melting point: 184 to 186 °C | MIC [2, 12]: 0.5 to 1 µg/mL (≈ 1.05 to 2.09 µM) | MIC [2, 13]: 0.5 to 1 µg/mL (≈ 1.05 to 2.09 µM) | MIC (M. kansasii; Table II, 2 strains): 8 µg/mL (≈ 16.7 µM) | MIC (M. tuberculosis 27294): 0.25 µg/mL (≈ 0.523 µM) | Growth inhibition of M. tuberculosis 27294 [5]: + | MIC [8]: 4 to 8 µg/mL (≈ 8.36 to 16.7 µM)
